Data as given in patent US20080227815A1, “Crystal of Indole Derivative Having Piperidine Ring and Process for Production Thereof” (priority 2005, published 2008).
Where a name gives a salt, the structure may show the parent alone.

Experiments:
Rat 5-HT1A = target: T1, Rat 5-HT1A (Rattus norvegicus, UniProt P19327); assay: Affinity for rat serotonin1A receptor ([3H]MPPF binding to rat hippocampal membrane fraction); conditions: pH 7.4, 25° C., 60 min, non-specific binding with 10 μM serotonin, Ki from IC50, tracer concentration and Kd (Scatchard)
T1 construct: A rat hippocampus sample was homogenized in a 50 mM Tris-HCl buffer; from tissue; host or cells: rat hippocampus (membrane fraction)
T1 sequence (P19327 1-422): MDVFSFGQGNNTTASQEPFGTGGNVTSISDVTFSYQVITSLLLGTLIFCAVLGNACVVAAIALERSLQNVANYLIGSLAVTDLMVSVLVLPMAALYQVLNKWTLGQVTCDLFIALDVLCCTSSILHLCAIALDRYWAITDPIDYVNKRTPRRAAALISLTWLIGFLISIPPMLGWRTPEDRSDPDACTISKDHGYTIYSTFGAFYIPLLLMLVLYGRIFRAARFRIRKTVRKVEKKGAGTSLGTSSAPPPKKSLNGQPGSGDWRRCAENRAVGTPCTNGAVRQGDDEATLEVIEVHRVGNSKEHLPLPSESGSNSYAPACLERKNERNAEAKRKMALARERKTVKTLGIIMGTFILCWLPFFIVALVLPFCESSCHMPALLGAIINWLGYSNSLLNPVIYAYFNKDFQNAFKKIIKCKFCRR
Method: Test Regarding Affinity for Rat Serotonin1A Receptor
An MPPF rat hippocampal membrane fraction selectively binding to the 5-HT1A receptor was used to test affinity of a test substance for the rat 5-HT1A receptor.
A rat hippocampus sample was homogenized in a 50 mM Tris-HCl buffer (pH 7.4; hereinafter referred to as “buffer A”) that had been cooled with ice. The suspension was centrifuged at 50,000×g for 20 minutes. The obtained sediment was suspended in buffer solution A, and the resultant solution was then centrifuged at 50,000×g for 20 minutes. The obtained sediment was suspended in buffer solution to obtain a rat hippocampus membrane fraction.
The mixture used for incubation contained an appropriate amount of membrane fraction, a test substance at a desired concentration, [^3H]MPPF, dimethyl sulfoxide and buffer A. The reaction was initiated through the addition of the membrane fraction, and the mixture was incubated at 25° C. for 60 minutes. After incubation, the mixture was subjected to vacuum filtration by passing through a glass filter using a Cell Harvester. The filter was washed 3 times with buffer solution A, and then radioactivity binding to the receptor was measured with a liquid scintillation counter. Non-specific binding was defined as binding detected in the presence of 10 μM serotonin. […]

urinary reflex = assay: Inhibitory action against the increased urinary reflex action due to destruction of the superior colliculus in rats (cystometrogram); type: in vivo, rat (Sprague-Dawley; conditions: 1 mg/kg, i.v.; superior colliculus-lesioned female Sprague-Dawley rats; maximal reaction (Emax)
Text: In the present test, Sprague-Dawley female rats (200-350 g) were used. The rats underwent a median incision of the abdomen under anesthesia. A hole with a minor diameter was made on the apex of the bladder, and a catheter used for measurement of an intravesical pressure was placed therein. A catheter used for administration of a test substance was placed in the femoral vein. These catheters were fixed at the occipital region of the rat through the subcutis. One day later, the urinary reflex of the rats was measured with a cystometrogram. Thereafter, the rats were fixed on a brain stereotaxis apparatus under anesthesia, and then subjected to a median incision of the scalp. […] Electric current was then applied (65° C., 4 minutes) so as to damage the brain tissue. After completion of the operation, when the rat awoke from the anesthesia, cystometrogram was conducted again to confirm the increased state of urinary reflex. A test substance was administered through the catheter placed in the femoral vein, and the action of the test substance on urinary reflex was evaluated. In addition, the effects of several test substances were compared using the maximal reaction (Emax).

CNC(=O)c1ccc2ccn(C3CCN(CCc4c(OC)ccc5c4OC(C)(C)CC5=O)CC3)c2c1 [Form D crystal form of fumarate, 1-{1-[2-(7-methoxy-2,2-dimethyl-4-oxochroman-8-yl)ethyl]piperidin-4-yl}-N-methyl-1H-indole-6-carboxamide fumarate (form D crystal)]
Ki (Rat 5-HT1A): 0.045 nM
Urinary interval Emax (urinary reflex): 75%
